Measured values: PMC4490784, “Compensatory induction of MYC expression by sustained CDK9 inhibition via a BRD4-dependent mechanism” (eLife, 2015)

Test system: MYC protein in HeLa cells
Assay: Immunoblotting of MYC protein in HeLa cell lysates
Assay type: cell-based, human
Details: for effect on MYC induction by i-CDK9: pretreatment before i-CDK9
Description: Figure 3. Induction of MYC mRNA production in response to sustained inhibition of CDK9 by i-CDK9 and the requirement of MYC's natural genomic structure in this process. (A) The indicated tumor cell lines were treated with i-CDK9 (0.5 μM) for 2–16 hr and the MYC mRNA levels, which were divided by those in the DMSO-treated cells and averaged from three independent replicates of DNA microarray analysis, were shown as log2 values. (B) HeLa cells were treated with the indicated concentrations of i-CDK9 for 8 hr and the various proteins in the total cell lysates were detected by immunoblotting as indicated. Quantifications of the levels of MYC protein and Ser2-phosphoryalted Pol II (pSer2) in the lysates were shown above and below the immunoblots, respectively. […] The levels of the indicated proteins were examined by immunoblotting. (G) A HeLa-based cell line containing the stably transfected, doxycycline (Dox)-inducible MYC-F-expressing plasmid driven by the CMV promoter was pretreated with (+) or without (−) Dox prior to incubation with i-CDK9 or DMSO. MYC and MYC-F expressed from the endogenous MYC locus and the transfected plasmid, respectively, were detected by immunoblotting. DOI: http://dx.doi.org/10.7554/eLife.06535.007 Figure 3—figure supplement 1. Biphasic response of MYC mRNA production throughout the course of CDK9 inhibition by i-CDK9. DOI: http://dx.doi.org/10.7554/eLife.06535.008 [drawing 2] Figure 3—Figure supplement 2. […] DOI: http://dx.doi.org/10.7554/eLife.06535.009 [drawing 3] TEXT PRINTED IN THE PICTURE: (B) i-CDK9: Fold increase in MYC protein: 1.0 (i-CDK9 (μM): 0); Fold increase in MYC protein: 1.2 (i-CDK9 (μM): 0.01); Fold increase in MYC protein: 1.7 (i-CDK9 (μM): 0.03); Fold increase in MYC protein: 3.6 (i-CDK9 (μM): 0.1); Fold increase in MYC protein: 5.2 (i-CDK9 (μM): 0.3); Fold increase in MYC protein: 5.5 (i-CDK9 (μM): 1.0) | (C) i-CDK9: Fold increase in MYC protein: 1.0 (0.3 μM i-CDK9 (h): 0); Fold increase in MYC protein: 0.9 (0.3 μM i-CDK9 (h): 1); Fold increase in MYC protein: 1.1 (0.3 μM i-CDK9 (h): 2); Fold increase in MYC protein: 1.2 (0.3 μM i-CDK9 (h): 4); Fold increase in MYC protein: 3.3 (0.3 μM i-CDK9 (h): 8)
First, the induction of MYC protein level was confirmed in HeLa cells treated with i-CDK9. […] It took 1.0 µM i-CDK9 to cause up to 85% reduction in pSer2. In a separate time-course analysis, the 8-hr incubation with i-CDK9 (0.3 μM) induced the MYC level by 3.3-fold, whereas the same condition reduced the pSer2 level by only 40% (Figure 3C). Thus, MYC expression was highly responsive to i-CDK9 treatment and occurred at a time point earlier and drug concentration lower than those required to achieve a significant suppression of Ser2 phosphorylation on the Pol II CTD.

SMILES | MYC protein level (e.g. 4 hr, e.g. 0.1 μM) | effect on MYC induction by i-CDK9
CN1CC[C@H](c2c(O)cc(O)c3c(=O)cc(-c4ccccc4Cl)oc23)[C@H](O)C1 [Flavopiridol, flavopiridol, reference compound] | significantly elevated | 
Cc1sc2c(c1C)C(c1ccc(Cl)cc1)=N[C@@H](CC(=O)OC(C)(C)C)c1nnc(C)n1-2 [JQ1, reference compound] |  | completely abolished
Cc1sc2c(c1C)C(c1ccc(Cl)cc1)=N[C@H](CC(=O)OC(C)(C)C)c1nnc(C)n1-2 [ctl., reference compound] |  | ineffective
